Results as given in patent publication EP4306512A1, “QUINOLYLNITRONES WITH IMPROVED POTENCY” (Fundación para la Investigación Biomédica del Hospital …, priority 2022, dated 2024).

System: Primary neuronal cultures
Assay: Neuroprotection after oxygen-glucose deprivation (OGD 4 h, 24 h recovery) in primary neuronal cultures, cell viability by MTT assay
Format: cell-based, rat
Conditions: for Neuroprotection at 1 µM / Neuroprotection at 10 µM / Neuroprotection at 100 µM: Rattus norvegicus; for Neuroprotection at 1 µM: Conc 1 µM; for neuroprotection effect / potency compared with references, in words: 1 µM for the compounds of the invention vs 10 µM for QN23 and 100 µM NXY-059; for cell viability: MTT absorbance after OGD 4 h and 24 h recovery, R24h vehicle 1.480 ± 0.02 AU, control 1.916 ± 0.07 AU; for protective effect (cell viability compared with vehicle-treated group R24h), in words: concentration range tested, from 0.1 to 250 µM; for Neuroprotection at 10 µM: Conc 10 µM; for toxicity / safety, in words: all tested doses
Description: Primary Neuronal Cultures. Primary neuronal cultures were prepared from rat embryos cerebral cortex following a procedure previously described by our group. Briefly, cell suspensions were prepared from cerebral cortices from E16 Sprague Dawley rat embryos and seeded on plastic multidishes precoated with 0.05 mg/mL poly-D-lysine at a density of 2.5 × 10^5 cells/cm^2. Cells were kept at 37 °C in a 6.5% CO2 atmosphere in high glucose DMEM medium supplemented with 15% heat-inactivated (56 °C, 30 min) fetal calf serum. After 24 h, culture medium was replaced by serum-free medium (DMEM/Ham's F12, 1:1 vol/vol, 5 mg/mL glucose, 2 mM L-glutamine, and 1 mM sodium pyruvate, supplemented with 100 µg/mL transferrin, 100 µM putrescine, 30 nM sodium selenite, 20 nM progesterone, and 5 µg/mL insulin). In these experiments, 6- to 7-days in vitro (DIV) neuronal cultures were used, containing 90% β-tubulin isotype III-positive mature neurons, as described previously.^23 All procedures associated with animal experiments were authorized by the Animal Experimentation Ethics Committee of the Hospital Universitario Ramón y Cajal (Madrid, Spain).
Experimental Ischemia in Neuronal Cultures and Treatments. Primary neuronal cultures were subjected to oxygen-glucose deprivation (OGD) to induce experimental ischemia. Cells cultured for 6- to 7- DIV were washed and placed in glucose-free DMEM medium (previously bubbled with 95% N2/5% CO2 for 30 min) and kept in a humidified anaerobic chamber containing a gas mixture of 95% N2/5% CO2 at 37 °C for 4 h (OGD 4h). Control group was placed in glucose-supplemented DMEM medium and kept in the normoxic incubator for 4h. After 4h of incubation under anoxic (OGD 4h) or normoxic (control) conditions, culture cells were quickly placed in serum-free normo-glycemic culture medium and let to reoxygenate, compounds or vehicle were added and cells were maintained in normoxic and normoglycemic conditions to recover for 24 h. Vehicle experimental group (R24h) included the same amount of vehicle solution than the groups tested with compounds (final concentration < 0.5% ethanol). The experimental procedure was blindly performed, assigning a random order to each group assayed. Compound assays were performed independently from four to eight times with different batches of cultures, and each experiment was run in quadruplicate.
Cell viability assays. To assess the potential neuroprotective effect of the compounds against OGD, cell viability was evaluated by quantification of living, metabolically active cells, as determined by the colorimetric assay using the photometric reduction of 3-(4,5-dimethylthiazol-2-yl)-2,5-diphenyl tetrazolium bromide (MTT) (Roche) to a blue formazan product. MTT assay was performed after the 24-hour-long recovery period -except for the OGD 4h group, for which MTT was added right after the end of the OGD period, with no recovery- by treating cells with 0.2 mg/mL MTT in the culture medium for 1.5 h at 37 °C in a 6.5% CO2 atmosphere. After incubation, cells were lysed with an equal volume of lysis solution (10 mM HCl, 10% SDS) overnight. Values were quantified by absorbance at 595 nm (reference 690 nm) and expressed in Absorbance Units (AU). Decreased MTT activity denotes impairment of mitochondrial function and is indicative of cell damage.
Statistical Analysis. Data from each treatment were independently analyzed and their averaged values were used for statistical analysis. The treatment information was kept concealed throughout the study. Data were represented as mean ± SE. Analysis of variance (ANOVA) was performed to compare the data between multiple concentrations, following post hoc test when analysis of variance was significant. Statistical significance level was set at α = 0.05 using Prism statistical software (GraphPad Software).
Cell viability observed in the control group was set as 100% of neuroprotection. […]

[1] = added at onset of 24 h recovery after OGD 4 h, R24h vehicle = 0%, control = 100%, mean ± SE
[2] = Conc 100 µM, added at onset of 24 h recovery after OGD 4 h, R24h vehicle = 0%, control = 100%, mean ± SE

With CCOC(=O)/C=C/c1nc2ccc(OC)cc2cc1/C=[N+](\[O-])C(C)(C)C [QN16, (Z)-N-tert-Butyl-1-(2-((E)-3-ethoxy-3-oxoprop-1-en-1-yl)-6-methoxyquinolin-3-yl)methanimine oxide] the “effect compared with vehicle R24h, in words” value (1 µM dose) was “higher effect than vehicle R24h”.
COc1ccc2nc(S(=O)(=O)c3ccc([N+](=O)[O-])cc3)c(/C=[N+](\[O-])Cc3ccccc3)cc2c1 [QN10, (Z)-N-Benzyl-1-(2-((4-nitrophenyl)sulfonyl)-6-methoxyquinolin-3-yl)methanimine oxide] was tested, and the Neuroprotection at 1 µM [1] was 47.2 ± 0.94%.
In the case of CC(C)(C)/[N+]([O-])=C/c1cc2cc(OCc3ccccc3)ccc2nc1Cl [QN4, (Z)-N-tert-Butyl-1-(6-(benzyloxy)-2-chloroquinolin-3-yl)methanimine oxide], the “neuroprotection effect / potency compared with references, in words” value is reported as “highest neuroprotection effect”, the cell viability (1 µM) is reported as 1.777 ± 0.04 AU and the Neuroprotection at 1 µM [1] is reported as 67.9 ± 1.44%.
For COc1ccc2nc(F)c(/C=[N+](\[O-])C(C)(C)C)cc2c1 [QN7, (Z)-N-tert-Butyl-1-(6-(methoxy)-2-fluoroquinolin-3-yl)methanimine oxide], the Neuroprotection at 1 µM [1] was 38.5 ± 0.62% and the “protective effect (cell viability compared with vehicle-treated group R24h), in words” value was “did not show significant differences to the value obtained for the vehicle-treated group”.
With COc1ccc2nc(Cl)c(/C=[N+](\[O-])C(C)(C)C)cc2c1 [QN23, (Z)-N-tert-butyl-1-(2-chloro-6-methoxyquinolin-3-yl)methanimine oxide, reference compound] the cell viability (10 µM) was 1.695 ± 0.03 AU and the Neuroprotection at 10 µM [1] was 49 ± 0.89%.
In the case of COc1ccc2nc(-c3ccc([N+](=O)[O-])cc3)c(/C=[N+](\[O-])C(C)(C)C)cc2c1 [QN15, (Z)-N-tert-Butyl-1-(6-methoxy-2-(4-nitrophenyl)quinolin-3-yl)methanimine oxide], the “neuroprotection effect / potency compared with references, in words” value is reported as “highest neuroprotection effect”, the Neuroprotection at 1 µM [1] is reported as 48.1 ± 1.21% and the “toxicity / safety, in words” value is reported as “safe”.
Work on C#CCOc1ccc2nc(Cl)c(/C=[N+](\[O-])Cc3ccccc3)cc2c1 [QN1, (Z)-N-Benzyl-1-(2-chloro-6-(prop-2-yn-1-yloxy)quinolin-3-yl)methanimine oxide] yielded a Neuroprotection at 1 µM [1] of 26.9 ± 0.88%, a Neuroprotection at 10 µM [1] of 34.8 ± 0.78% and a Neuroprotection at 100 µM [2] of 41.3 ± 1.91%. For the same molecule, the “protective effect (cell viability compared with vehicle-treated group R24h), in words” value was “no remarkable overall protective effect”.
C#CCOc1ccc2nc(Cl)c(/C=[N+](\[O-])C(C)(C)C)cc2c1 [QN2, (Z)-N-tert-Butyl-1-(2-chloro-6-(prop-2-yn-1-yloxy)quinolin-3-yl)methanimine oxide] gave a Neuroprotection at 1 µM [1] of 33.7 ± 0.73%, a Neuroprotection at 10 µM [1] of 33.3 ± 0.93% and a Neuroprotection at 100 µM [2] of 40 ± 0.77%. The “protective effect (cell viability compared with vehicle-treated group R24h), in words” value was “no remarkable overall protective effect”.
COc1ccc2nc(-c3ccc([N+](=O)[O-])cc3)c(/C=[N+](\[O-])Cc3ccccc3)cc2c1 [QN14, (Z)-N-Benzyl-1-(6-methoxy-2-(4-nitrophenyl)quinolin-3-yl)methanimine oxide] was tested, and the “neuroprotection effect / potency compared with references, in words” value was “highest neuroprotection effect”, the cell viability (1 µM) was 1.742 ± 0.04 AU and the Neuroprotection at 1 µM [1] was 60.1 ± 1.24%. The “toxicity / safety, in words” value was “safe”.
Work on COc1ccc2nc(S(=O)(=O)c3ccc([N+](=O)[O-])cc3)c(/C=[N+](\[O-])C(C)(C)C)cc2c1 [QN11, (Z)-N-tert-Butyl-1-(2-((4-nitrophenyl)sulfonyl)-6-methoxyquinolin-3-yl)methanimine oxide] yielded a Neuroprotection at 1 µM [1] of 46.5 ± 1.94%.
In the case of COc1ccc2nc(O)c(/C=[N+](\[O-])C(C)(C)C)cc2c1 [QN5, (Z)-N-tert-Butyl-1-(2-hydroxy-6-methoxyquinolin-3-yl)methanimine oxide], the Neuroprotection at 1 µM [1] is reported as 24.5 ± 0.54% and the “protective effect (cell viability compared with vehicle-treated group R24h), in words” value is reported as “did not give a remarkable protective effect”.
COc1ccc2nc(-c3ccc(C(F)(F)F)cc3)c(/C=[N+](\[O-])C(C)(C)C)cc2c1 [QN13, (Z)-N-tert-Butyl-1-(6-methoxy-2-(4-(trifluoromethyl)phenyl)quinolin-3-yl)methanimine oxide] was tested, and the Neuroprotection at 1 µM [1] was 39.3 ± 1.16%.
In the case of [O-]/[N+](=C\c1cc2cc(OCc3ccccc3)ccc2nc1Cl)Cc1ccccc1 [QN3, (Z)-N-Benzyl-1-(6-(benzyloxy)-2-chloroquinolin-3-yl)methanimine oxide], the Neuroprotection at 1 µM [1] is reported as 45.2 ± 1%.
For COc1ccc2nc(F)c(/C=[N+](\[O-])Cc3ccccc3)cc2c1 [QN6, (Z)-N-Benzyl-1-(6-(methoxy)-2-fluoroquinolin-3-yl)methanimine oxide], the Neuroprotection at 1 µM [1] was 26.3 ± 0.89%, the Neuroprotection at 10 µM [1] was 25.1 ± 1.03% and the “protective effect (cell viability compared with vehicle-treated group R24h), in words” value was “did not show significant differences to the value obtained for the vehicle-treated group”.
For C[N+](C)(C)CCOP(=O)(O)OP(=O)([O-])OC[C@H]1O[C@@H](n2ccc(N)nc2=O)[C@H](O)[C@@H]1O [citicoline, reference compound], the cell viability (100 µM) was 1.588 ± 0.02 AU.
For COc1ccc2nc(S(=O)(=O)c3ccccc3)c(/C=[N+](\[O-])Cc3ccccc3)cc2c1 [QN8, (Z)-N-Benzyl-1-(6-methoxy-2-(phenylsulfonyl)quinolin-3-yl)methanimine oxide], the “neuroprotection effect / potency compared with references, in words” value was “highest neuroprotection effect” and the Neuroprotection at 1 µM [1] was 54.1 ± 2.27%.
With CC(C)(C)[N+]([O-])=Cc1ccc(S(=O)(=O)[O-])cc1S(=O)(=O)[O-].[Na+].[Na+] [NXY-059, reference compound] the cell viability (100 µM) was 1.664 ± 0.07 AU and the “Neuroprotection (%)” value [2] was 41.93 ± 2.26%.
